Entries after “also recorded” stand apart in the source; their conditions may differ.
Assays:
[1] = test system: ACAT; assay: Cholesterol determinations in hAPP mice treated two months with CP-113,818 pellets; type: in vivo, mouse; settings: 7.2 mg/kg/day, 57 days
Source text: hAPP transgenic mice overexpress human APP751 with the London (V717I) and Swedish (K670M/N671L) mutations under the regulatory control of the neuron specific murine (m)Thy-1 promoter (mThy-1-hAPP751; heterozygous with respect to the transgene, on a C57BL/6 F3 background) (Rockenstein et al., 2001). The hAPP colony was sustained by crossing transgenic APP751 with C57BL/6 (Harlan Winkelman, Germany). Corresponding littermates were used for control studies. All mice were housed according to standard animal care protocols, fed ad libitum with standard chow diet, and maintained in a pathogen-free environment in single ventilated cages at JSW Research. The transgenic status of each animal was confirmed by real time PCR of tail snips using specific primers and the appropriate hybridization probe. A modified Irvine test was regularly performed prior to the experiment to assess the neurological status of the animals; those showing disturbances were excluded from the experiments. Mice were then randomly assigned to different treatment groups and individually coded. Investigators performing behavioral testing, biochemical analyzes and histomorphological evaluations of the brains were blinded in terms of group allocation of the mice. […]
Animals were sacrificed the day after the last MWM training, on day 57 of treatment. […] Hematoxylin and eosin stained 6-8 um sections were analyzed for evidence of CP-113,818 toxicity.
Tissues were homogenized in the presence of trypsin (10 mg/ml) in a Dounce homogenizer on ice. Protein concentration of the homogenate was determined using the BCA protein assay kit (Pierce). […] Dried lipid pellets were dissolved in water and total amount of cholesterol was determined with an enzymatic assay (Sigma; cat. no. 402-20). As control, free cholesterol was determined with a different enzymatic assay (R-Biopharm GmbH, Darmstadt, Germany; cat. no. E0139050). The amount of cholesteryl-esters was calculated by subtracting free from total cholesterol. […]

[2] = test system: hAPP mice and non-transgenic littermates; assay: Morris water maze spatial learning and memory test; type: in vivo, mouse
Description: 53 days after the treatment, mice were trained in the Morris water maze (MWM) spatial navigation task in which a mouse swims to find a hidden platform, using visual cues. The task is based on the principle that rodents are highly motivated to escape from a water environment by the quickest, most direct route. This task is carried out in a circular pool (1 meter diameter) filled with water (22±1° C.) and virtually divided into four quadrants. A platform is placed in the southwest quadrant 1 cm beneath the surface of the water. The computer randomly changes the starting positions of an animal. On four consecutive days mice attend three trials per day (each lasting for a maximum of 60 seconds). Escape latency (time to find the hidden platform), and length of swimming path were measured. Significant differences of the behavioral results were calculated with the Mann Whitney U-test.
To analyze the effect of CP-113,818 treatment on cognitive function of hAPP mice, we performed Morris water maze spatial learning and memory tests on the animals. Since hAPP mice develop cognitive deficits starting at 6 months of age, the 6.5 month-old animals in our study were only expected to show slight deterioration due to Aβ accumulation, when compared to non-transgenic littermates. […] Clear impairment of cognitive function due to Aβ accumulation was only observed in female transgenic mice. […] This could have been due to a ceiling effect owing to maximum swimming speed. Compared to placebo, the improvement between day 1 and day 3 due to CP-113,818 treatment was significant (p<0.033). […] Although testing of more mice at an older age will be needed to further assess the effect of decreased amyloid pathology on spatial learning and memory, improved performance in a Morris water maze test correlated well with the highly significant decrease of overall plaque load and Aβ in CP-113,818-treated female animals.

[3] = biological target: Aβ40 (Homo sapiens, UniProt P05067); assay: Turbidity assay of Aβ40 aggregation; settings: 10 μM, absorbance at 400 nm over four days
Aβ40, sequence (P05067 672-711 limits assumed): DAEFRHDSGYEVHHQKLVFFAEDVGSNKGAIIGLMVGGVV
Description: Aβ40 aggregation was monitored according to the method of Jarrett et al. (Jarrett et al., 1993). Briefly, Aβ40 (100 μg/ml) was incubated at 37° C. in TBS in a 384-well plate (60 μl/well). Well turbidity was monitored for four days by following absorbance at 400 nm. Aβ40 aggregation was promoted by the addition of “aged” (pre-incubated for 2 weeks at room temperature) Aβ42 (Aβ42/Aβ40=1/10) (Jarrett et al., 1993) or Zn/histine buffer (50 μM Zn++in 350 μM histine) (Bush et al., 1994). Absorbance of test wells was blanked on signal from samples without Aβ40. For some experiments, incubation buffers included CP-113,818 (10 μM).

With CCCCCCCC[C@H](SCCCCCC)C(=O)Nc1c(SC)cc(C)nc1SC [CP-113,818] the “decrease of liver cholesterol” value [1] was 34%, the “decrease of liver cholesteryl-esters” value [1] was 87% and the “decrease of serum cholesterol” value [1] was 35%. For the same compound, the “spatial learning of all hAPP mice taken together” value ([2]; all hAPP mice regardless of gender) was “trend toward acquiring the task quickly”, the “spatial learning performance of female hAPP mice (swimming path, escape latency)” value ([2]; female hAPP mice, days 54-57 of treatment) was “reversed the observed impairment; also recorded: improved this performance” and the “spatial learning performance of male hAPP mice” value ([2]; male hAPP mice) was “did not affect the performance”. The “swimming path of male non-transgenic animals” value ([2]; male non-transgenic mice, day four, not escape latency) was “performed better than the placebo-treated cohort; also recorded: slightly improved”, the “spatial performance of non-transgenic female mice” value ([2]; non-transgenic female mice) was “did not affect spatial performance” and the “effect on metal- or Aβ42-mediated aggregation of Aβ40 in vitro” value [3] was “failed to directly inhibit; also recorded: does not directly modulate”.

— patent US20050118226A1, “Methods for treating ACAT-related diseases” (priority 2003, published 2005)
